# Measurements published in ChEMBL document CHEMBL3885861, “Open TG-GATES”.
# Species: Rattus norvegicus
# Assay: Open TG-GATES - Regimen: Daily Repeat
# Format: toxicity, organism-based, Sprague-Dawley
# Set-up: regimen Daily Repeat, gender Male, age 6 weeks
# Conditions: in vivo, po, route gavage; for APTT / Bas / Eos / Fbg / Ht / Lym / MCH / MCHC / MCV / Mono / Neu / PT / Plat / RBC / Ret / WBC / Hb: tissue Blood; for KIDNEY_L / KIDNEY_R / KIDNEY_TOTAL: tissue Kidney; for LIVER: tissue Liver; for ALP / AST / BUN / CRE / Ca / Cl / DBIL / GLC / IP / LDH / Na / PL / RALB / TBIL / TC / TG / TP / gamma-GTP: tissue Plasma
# [1] = 0 mg/kg, 72 h, dose level Control, time 3 day
# [2] = 0 mg/kg, […], dose level Control, time 7 day
# [3] = 0 mg/kg, […], dose level Control, time 14 day
# [4] = 0 mg/kg, […], dose level Control, time 28 day
smiles,measurement,setting,value
CC(=O)N1CCN(c2ccc(OCC3COC(Cn4ccnc4)(c4ccc(Cl)cc4Cl)O3)cc2)CC1 (stereo unspecified) [KETOCONAZOLE],TERMINAL_BW,[1],231 g
same,APTT,[1],20.9 s
same,Bas,[1],0%
same,Eos,[1],0.8%
same,Fbg,[1],294.6 mg/dL
same,Ht,[1],38.3%
same,Lym,[1],82%
same,MCH,[1],21.7 pg
same,MCHC,[1],34.3%
same,MCV,[1],63.3 fL
same,Mono,[1],2.2%
same,Neu,[1],14.2%
same,PT,[1],16.5 s
same,Plat,[1],118.7 x10_4/uL
same,RBC,[1],604.8 x10_4/ul
same,Ret,[1],6.5%
same,WBC,[1],106.4 x10_2/uL
same,KIDNEY_L,[1],1.1 g
same,KIDNEY_R,[1],1.1 g
same,KIDNEY_TOTAL,[1],2.1 g
same,LIVER,[1],10.8 g
same,ALP,[1],1650.6 IU/L
same,AST,[1],68 IU/L
same,BUN,[1],18.6 mg/dL
same,CRE,[1],0.2 mg/dL
same,Ca,[1],10.8 mg/dL
same,Cl,[1],106.2 meq/L
same,DBIL,[1],0 mg/dL
same,GLC,[1],184.2 mg/dL
same,IP,[1],5.9 mg/dL
same,LDH,[1],222.4 IU/L
same,Na,[1],140.2 meq/L
same,PL,[1],142.6 mg/dL
same,RALB,[1],3 g/dL
same,TBIL,[1],0.012 mg/dL
same,TC,[1],71 mg/dL
same,TG,[1],85.2 mg/dL
same,TP,[1],5.6 g/dL
same,gamma-GTP,[1],1.4 IU/L
same,TERMINAL_BW,[2],269.3 g
same,TERMINAL_BW,[3],301.1 g
same,TERMINAL_BW,[4],376.7 g
same,APTT,[2],22.6 s
same,Bas,[2],0%
same,Eos,[2],1%
same,Fbg,[2],301.6 mg/dL
same,Hb,[2],13.6 g/dL
same,Ht,[2],40.1%
same,Lym,[2],78.4%
same,MCH,[2],21.1 pg
same,MCHC,[2],34%
same,Mono,[2],2%
same,Neu,[2],17.8%
same,PT,[2],16.1 s
same,Plat,[2],91.9 x10_4/uL
same,RBC,[2],645.4 x10_4/ul
same,Ret,[2],5.5%
same,WBC,[2],94.3 x10_2/uL
same,APTT,[3],22.2 s
same,Bas,[3],0%
same,Eos,[3],0.8%
same,Fbg,[3],298 mg/dL
same,Hb,[3],14 g/dL
same,Ht,[3],40.9%
same,Lym,[3],81.4%
same,MCH,[3],20.5 pg
same,MCHC,[3],34.3%
same,MCV,[3],59.8 fL
same,Mono,[3],1.6%
same,Neu,[3],15.4%
same,PT,[3],16.1 s
same,Plat,[3],113.5 x10_4/uL
same,RBC,[3],685 x10_4/ul
same,Ret,[3],4.1%
same,WBC,[3],110.9 x10_2/uL
same,Bas,[4],0%
same,Eos,[4],1%
same,Fbg,[4],291.4 mg/dL
same,Hb,[4],14.9 g/dL
same,Ht,[4],43.4%
same,Lym,[4],83.8%
same,MCH,[4],19.1 pg
same,MCHC,[4],34.3%
same,MCV,[4],55.8 fL
same,Mono,[4],1.6%
same,Neu,[4],11.8%
same,PT,[4],17 s
same,Plat,[4],107.7 x10_4/uL
same,RBC,[4],779.8 x10_4/ul
same,Ret,[4],2.5%
same,WBC,[4],126.2 x10_2/uL
same,KIDNEY_L,[2],1.2 g
same,KIDNEY_R,[2],1.2 g
same,KIDNEY_TOTAL,[2],2.4 g
same,KIDNEY_L,[3],1.1 g
same,KIDNEY_R,[3],1.2 g
same,KIDNEY_TOTAL,[3],2.3 g
same,KIDNEY_L,[4],1.3 g
same,KIDNEY_R,[4],1.4 g
same,KIDNEY_TOTAL,[4],2.7 g
same,LIVER,[2],12.2 g
same,LIVER,[4],15.3 g
same,ALP,[2],1766.8 IU/L
same,AST,[2],69.2 IU/L
same,BUN,[2],19 mg/dL
same,CRE,[2],0.2 mg/dL
same,Ca,[2],10.8 mg/dL
same,Cl,[2],106.4 meq/L
same,DBIL,[2],0 mg/dL
same,GLC,[2],182.8 mg/dL
same,IP,[2],6.7 mg/dL
same,LDH,[2],176.2 IU/L
same,Na,[2],141.8 meq/L
same,PL,[2],156.8 mg/dL
same,RALB,[2],3.2 g/dL
same,TBIL,[2],0.002 mg/dL
same,TC,[2],80.6 mg/dL
same,TG,[2],102.8 mg/dL
same,TP,[2],5.8 g/dL
same,gamma-GTP,[2],1.2 IU/L
same,ALP,[3],1657 IU/L
same,AST,[3],71.2 IU/L
same,BUN,[3],19 mg/dL
same,CRE,[3],0.2 mg/dL
same,Ca,[3],10.3 mg/dL
same,Cl,[3],107.2 meq/L
same,DBIL,[3],0 mg/dL
same,GLC,[3],178.4 mg/dL
same,IP,[3],6.4 mg/dL
same,LDH,[3],207.6 IU/L
same,Na,[3],142.4 meq/L
same,PL,[3],167.6 mg/dL
same,RALB,[3],3 g/dL
same,TBIL,[3],0.002 mg/dL
same,TG,[3],140.8 mg/dL
same,TP,[3],5.8 g/dL
same,gamma-GTP,[3],1 IU/L
same,ALP,[4],1167.6 IU/L
same,AST,[4],73.6 IU/L
same,BUN,[4],19.6 mg/dL
same,CRE,[4],0.2 mg/dL
same,Ca,[4],10.3 mg/dL
same,Cl,[4],106.8 meq/L
same,DBIL,[4],0 mg/dL
same,GLC,[4],190.2 mg/dL
same,IP,[4],5.5 mg/dL
same,LDH,[4],168.4 IU/L
same,Na,[4],141.8 meq/L
same,PL,[4],144.4 mg/dL
same,RALB,[4],3.1 g/dL
same,TBIL,[4],0.016 mg/dL
same,TC,[4],66 mg/dL
same,TG,[4],153.2 mg/dL
same,TP,[4],6 g/dL
same,gamma-GTP,[4],1.2 IU/L
same,TERMINAL_BW,"10 mg/kg, 72 h, dose level Low, time 3 day",236.3 g
